From patent publication US7462735B2, “Amino acid diamides in non α position which are useful as adjuvants for administration of biological active agents” (Laboratorios Farmaceuticos Rovi, S.A., priority 2003, dated 2008) come the findings set out here.

Data set [1] in a line: Intracolonic absorption of bemiparin in the rat, with or without adjuvant (plasma anti-Xa activity). It is filed as in vivo. The settings on record: for effect on colonic absorption of bemiparin measured by plasma anti-Xa activity: adjuvant given with bemiparin, result in words; for anti-Xa activity/ml in plasma: 30 mg/kg bemiparin (+ 30 mg/kg adjuvant). An excerpt:
The properties of the invention products have been investigated in an experimental model described below that consists of measuring the intracolonic absorption in the rat of a low-molecular-weight heparin, bemiparin, with a mean molecular mass of around 3,500 daltons and an anti-Xa activity of around 100 units/mg.
The activity of all compounds of the examples described above was studied in animals according to the following experimental model:
Evaluate the absorption of the test product when administered by intracolonic route to rats, whether or not in the presence of adjuvants. The plasma concentration is measured by assaying the Factor Xa-inhibition capacity. The rat is used because it is one of the species commonly used in this type of test.
One intracolonic administration.
25% (v/v) propylene glycol in bidistilled water. After dissolving the test product along with the adjuvant if applicable, adjust the pH to approximately 7.4 with NaOH.
The animals will be in fasted state for approximately 18 h with free access to water
The animals will be randomized to the various experimental groups, with one remaining animal as a reserve per group:
On the day of the test, the treatments will be administered by intracolonic route, following anaesthesia with ketamine. Administration will be done using a catheter of approximately 8 cm, connected to a 1-ml syringe. The catheter will be introduced in its entirety into the colon through the anus and the test product will be administered slowly into the colon.
Following the administration of the test product, within the times established in the table, a citrated blood sample (3.8% at a ratio of 1:9) will be drawn by intracardiac puncture under anaesthesia with ketamine.
Blood centrifugation: 3000 rpm, 10 minutes, 4° C. Plasma freezing (−20±5° C.) until determining the anti-Factor Xa activity.
A control group that will receive no treatment will be included, simply that one blood sample will be drawn per animal under the same conditions as the treatment group, with considered to be the baseline value of anti-Xa activity.
The anti-Xa activity will be assayed by the chromogenic method (anti-FXa activity assay kit).
The mean, the standard deviation […] and the standard error of the mean of each experimental group will be calculated for each parameter. If considered adequate, the values obtained in the different experimental groups will be compared by a statistical analysis.

The next data set concerns Factor Xa. Put plainly: Anti-Xa activity of the heparin material (units/mg). The following applies: specific activity of the heparin material. It counts as biochemical.

As a reminder, the melting point is the temperature of the solid-liquid transition. `O=C(O)CCCNC(=O)c1ccccc1NC(=O)c1ccccc1[N+](=O)[O-]` [Example 8, 4-[2-(2-nitrobenzoylamino)benzoylamino]butanoic acid] showed a melting point of 142 to 144 °C. `O=C(O)CCCNC(=O)c1ccccc1NC(=O)c1ccccc1O` [Example 4, 4-[2-(2-hydroxybenzoylamino)benzoylamino]butanoic acid] displayed a melting point of 173 to 174 °C. Besides, the “effect on colonic absorption of bemiparin measured by plasma anti-Xa activity” value (“effect on colonic absorption” below) in data set [1] is “strong increase”. For the molecule `COc1ccc(O)c(C(=O)Nc2ccccc2C(=O)NCCCC(=O)O)c1` [Example 14, 4-[2-(2-hydroxy-5-methoxybenzoylamino)benzoylamino]butanoic acid], the melting point lay within 191 to 193 °C. The molecule `O=C(O)CCCCNC(=O)c1ccccc1NC(=O)c1ccccc1O` [Example 5, 5-[2-(2-hydroxybenzoylamino)benzoylamino]pentanoic acid] gave a melting point of 168 to 170 °C. As for `O=C(O)CCCCCNC(=O)c1ccccc1NC(=O)c1ccccc1O` [Example 7, 6-[2-(2-hydroxybenzoylamino)benzoylamino]hexanoic acid], the melting point lay in the range of 165 to 167 °C.

The molecule `O=C(O)CCNC(=O)c1ccccc1NC(=O)c1ccccc1O` [Example 9, 3-[2-(2-hydroxybenzoylamino)benzoylamino]propanoic acid] yielded a melting point of 200 to 202 °C. Still for that read-out and setting: for `O=C(O)CCCNC(=O)c1ccccc1NC(=O)c1cccc(Cl)c1` [Example 22, 4-[2-(3-chlorobenzoylamino)benzoylamino]butanoic acid] the value was 165 to 166 °C.

With `O=C(O)CCCCCCCNC(=O)c1ccccc1NC(=O)c1ccccc1O` [Example 6, 8-[2-(2-hydroxybenzoylamino)benzoylamino]octanoic acid], the melting point is 124 to 125 °C. For the molecule `O=C(O)CCCNC(=O)c1ccc(NC(=O)c2ccccc2O)cc1` [Example 1, 4-[4-(hydroxybenzoylamino)benzoylamino]butanoic acid], the melting point lay within 211 to 213 °C. The “effect on colonic absorption” value in data set [1] is “no effect”. The matching figures for `O=C(O)CCCNC(=O)c1cccc(NC(=O)c2ccccc2O)c1` [Example 3, 4-[3-(2-hydroxybenzoylamino)benzoylamino]butanoic acid]: 172 to 174 °C and “no effect”. Take `COc1ccc(C(=O)Nc2ccccc2C(=O)NCCCC(=O)O)c(O)c1` [Example 13, 4-[2-(2-hydroxy-4-methoxybenzoylamino)benzoylamino]butanoic acid]: the melting point is 201 to 203 °C. `O=C(O)CCCNC(=O)c1ccccc1NC(=O)c1ccc([N+](=O)[O-])cc1O` [Example 11, 4-[2-(2-hydroxy-4-nitrobenzoylamino)benzoylamino]butanoic acid]: the melting point fell in the range of 209 to 211 °C. Also, the “effect on colonic absorption” value in data set [1] was “strong increase”. As to `COc1ccc(C(=O)Nc2ccccc2C(=O)NCCCC(=O)O)cc1` [Example 16, 4-[2-(4-methoxybenzoilamino)benzoilamino]butanoic acid], the melting point lay within 172 to 174 °C. As to Bemiparin, the anti-Xa activity entry in the data set on Factor Xa is given as “around 100 units/mg”. Besides, the “anti-Xa activity/ml in plasma” value is listed as 0.103 in data set [1] (0.5 h post-administration), 0.222 in data set [1] (2 h post-administration) and 0.345 in data set [1] (4 h post-administration). The molecule `O=C(O)CCCNC(=O)c1ccccc1NC(=O)c1ccc([N+](=O)[O-])cc1` [Example 15, 4-[2-(4-nitrobenzoylamino)benzoylamino]butanoic acid] registered a melting point of 206 to 208 °C. Molecule `O=C(O)CCCNC(=O)c1ccccc1NC(=O)c1cc([N+](=O)[O-])ccc1O` [Example 12, 4-[2-(2-hydroxy-5-nitrobenzoylamino)benzoylamino]butanoic acid] registered a melting point of 239 to 241 °C.

`O=C(O)CCCCCNC(=O)c1ccc(NC(=O)c2ccccc2O)cc1` [Example 2, 6-[4-(2-hydroxybenzoylamino)benzoylamino]hexanoic acid] gave a melting point of 201 to 203 °C. For the same molecule, in data set [1], the “effect on colonic absorption” value was “no effect”. With `O=C(O)CCCNC(=O)c1ccccc1NC(=O)c1ccccc1Br` [Example 21, 4-[2-(2-bromobenzoylamino)benzoylamino]butanoic acid], the melting point was 117 to 118 °C. Molecule `O=C(O)CCCNC(=O)c1ccccc1NC(=O)c1ccc(Cl)cc1` [Example 17, 4-[2-(4-chlorobenzoylamino)benzoylamino]butanoic acid] registered a melting point of 182 to 184 °C. For the same molecule, the “effect on colonic absorption” value in data set [1] is reported as “strong increase”. For `O=C(O)CCCNC(=O)c1ccccc1NC(=O)c1ccc(Cl)cc1O` [Example 18, 4-[2-(4-chloro-2-hydroxybenzoylamino)benzoylamino]butanoic acid], the melting point lay within 205 to 206 °C. Take `O=C(O)CCCNC(=O)c1ccccc1NC(=O)c1cc(Cl)ccc1O` [Example 19, 4-[2-(5-chloro-2-hydroxybenzoylamino)benzoylamino]butanoic acid]: the melting point was 222 to 223 °C.

Molecule `O=C(O)CCCNC(=O)c1ccccc1NC(=O)c1ccccc1Cl` [Example 20, 4-[2-(2-chlorobenzoylamino)benzoylamino]butanoic acid] registered a melting point of 110 to 112 °C.
